Test results: patent US20180327354A1, “Unnatural Analogues of Calcitriol and Uses Thereof” (Vidasym, Inc., priority 2009, published 2018)
“Also recorded” adds a separate entry of the source. Like-named read-outs stand apart in the source and are kept apart here.

Columns and labels:
normal mice = assay: Hypercalcemic side effect profile and serum PTH in normal mice; format: in vivo, Male C57/BL mice; conditions: for dose at which compound starts to raise serum Ca: i.p. dosing once daily for 3 consecutive days
Procedure: The normal mice model is a convenient and quick way to assess the hypercalcemic side effect profile of compounds. At the same time, data on serum PTH can be collected.
Male C57/BL mice at 18-20 g are dosed with the test agent at 100 al/mouse (concentrations as indicated) i.p. once daily for 3 consecutive days or at 10 ml/kg, p.o. gavage, once daily for 5 days. The animals were harvested 24 h after the last dose by anesthetization with ketamine/xylazine. Blood was collected from the aorta. Serum total calcium was measured using the QuantiChrom Calcium Assay kit and/or the Roche Hitachi 912 Chemistry Analyzer. Serum PTH was measured using a PTH Immunoassay. Vehicle control was 100 l/mouse of 5% EtOH/95% propylene glycol for i.p. dosing or 10 ml/kg of 20% Hydroxypropyl-β-Cyclodextrin for p.o. gavage dosing.
For serum chemistry data, group mean±SEM are presented. Differences between vehicle and compound-treated groups are assessed using a one-way ANOVA followed by a Dunnett's post-hoc test. FIGS. 3A and 3B show the results from a typical p.o. gavage dosing study (n=4-9 per group).

CD14 = CD14 expression induction in HL-60 promyelocytic leukemia cells (real-time RT-PCR); format: cell-based; conditions: Homo sapiens; HL-60 cells, 24 h, mRNA normalized to GAPDH; Table 3 summary, some values average of 3 or more determinations; read-out: CD14 EC50
Procedure: (§1) Some compounds were tested in HL-60 promyelocytic leukemia cells and a primary culture of human coronary artery smooth muscle cells (HCASMC) for CYP24A1 induction. It is well documented that CYP24A1 has a VDRE in its promoter region and is a specific target gene of VDR (Meyer et al., 2007, J Biol Chem 282: 22344-22352). […] Compounds also were tested in HCASMC for their effects in inducing VDR. To assess the suitability of a compound for modulating immune responses, compounds were tested in HL-60 for their effects in inducing CD14 expression. To assess the suitability of a compound for treating thrombosis, compounds also were tested in HCASMC for their effects in modulating thrombomodulin and thrombospondin-1.
(§2) Compounds are tested in human HL-60 promyelocytic leukemia cells to assess their potency in inducing the expression of CYP24A1 and CD14. HL-60 cells are cultured in IMDM supplemented with 20% heat-inactivated fetal bovine serum at 37° C. in a humidified 5% CO2-95% air atmosphere. Cells are plated into 6 well plates and treated with test agent for 24 h. Cells are lysed with the addition of 1 mL of Trizol and RNA prepared according to the manufacturer's protocol.
(§3) Real-time reverse transcription-PCR is performed with the forward and reverse PCR primers and 250 nM of the TAQMAN™ probe specifically designed for CYP24A1 or CD14. (A TAQMAN™ probe is comprised of a fluorophore covalently attached to the 5′-end of the oligonucleotide probe and a quencher at the 3′-end.) After the data acquisition, the CYP24A1 or CD14 mRNA expression level is normalized to the GAPDH mRNA level. FIGS. 2A and 2B show the results from a typical CYP24A1 (FIG. 2A) and CD14 (FIG. 2B) expression study.

CYP24A1 [1] = assay: CYP24A1 expression induction in HL-60 promyelocytic leukemia cells (real-time RT-PCR); format: cell-based; conditions: Homo sapiens; HL-60 cells, 24 h, mRNA normalized to GAPDH; Table 3 summary, some values average of 3 or more determinations; read-out: CYP24A1 EC50
Procedure: as §1, §2, §3

[2] = Maximal absorbance wavelength and extinction coefficient (spectrophotometer scan); format: physicochemical; conditions: 100 μM in 50:50 de-ionized water and ethanol; for extinction coefficient: in M-1·cm-1 (unit assumed)
Procedure: To determine the maximal absorbance wavelength (ODmax) and the extinction coefficients for the compounds, each compound is diluted in a 50:50 solution (by volume) of de-ionized water and ethanol at 100 μM and scanned by a spectrophotometer.

thrombomodulin = assay: Thrombomodulin protein in human coronary artery smooth muscle cells (Western blot); format: cell-based; conditions: HCASMC, 48 h, FIG. 21B
Procedure: (§4) Human coronary artery smooth muscle cells (HCASM) were incubated with Vida-5 or Vida-11 at different concentrations for 48 h and then were solubilized in 50 al of SDS-PAGE sample buffer. The protein content in each sample was determined by the bicinchoninic acid protein assay. Samples were resolved by SDS-PAGE using a 4-12% NuPAGE gel, and proteins were electrophoretically transferred to polyvinylidene fluoride membrane for Western blotting. The membrane was blocked for 1 h at 25° C. with 5% nonfat dry milk in phosphate buffered saline Tween-20 (PBS-T) and then incubated with a mouse anti-thrombospondin-1 monoclonal antibody (2,000-fold dilution), or a mouse anti-TM monoclonal antibody (2,000-fold dilution) in PBS-T overnight at 4° C.
(§5) The membrane was washed with PBS-T and incubated with a horseradish peroxidase-labeled anti-mouse antibody for 1 h at 25° C. The membrane was then incubated with Amersham ECL Plus Western Blotting Detection Reagents. Specific bands were visualized by the Multiimage II of Alpha Innotech imaging system. Band intensity was quantified using Spot Denso.

VDR = VDR expression induction in primary culture of human coronary artery smooth muscle cells; format: cell-based; conditions: HCASMC, 24 h, Table 4 summary, some values average of 2 or more determinations, read-out: EC50 for VDR induction
Procedure: (§6) Compounds were tested in a primary culture of HCASMC to assess their potency in inducing the expression of CYP24A1 and VDR.
(§7) Primary culture of HCASMC was grown in smooth muscle growth medium SmGM-2 containing 5.5 mM glucose, 5% FBS, 50 μg/ml gentamicin, 50 ng/ml amphotericin-B, 5 μg/ml insulin, 2 ng/ml hFGF, and 0.5 ng/ml hEGF at 37° C. in a humidified 5% CO2-95% air. Cells were grown to >80% confluence and used within five passages.
(§8) Cells were plated into 6 well plates and treated with test agent for 24 h. Cells were lysed with the addition of 1 mL of Trizol and RNA prepared according to the manufacturer's protocol.
(§9) Real-time reverse transcription-PCR was performed with the forward and reverse PCR primers and […] of the TAQMAN™ probe specifically designed for CYP24A1 or VDR. (A TAQMAN™ probe is comprised of a fluorophore covalently attached to the 5′-end of the oligonucleotide probe and a quencher at the 3′-end.) After the data acquisition, the CYP24A1 or VDR mRNA expression level was normalized to the GAPDH mRNA level. […] Group mean±STDEV (standard deviation) are presented.

CYP24A1 [3] = assay: CYP24A1 expression induction in primary culture of human coronary artery smooth muscle cells; format: cell-based; conditions: HCASMC, 24 h, Table 4 summary, some values average of 2 or more determinations, read-out: EC50 for CYP24A1 induction
Procedure: as §6, §7, §8, §9

thrombospondin-1 = assay: Thrombospondin-1 protein in human coronary artery smooth muscle cells (Western blot); format: cell-based; conditions: HCASMC, 48 h, FIG. 21A
Procedure: as §4, §5

uremic rats = conditions: cited from earlier work
[4] = Slatopolsky et al., 1998, converted from ng/rat

maximal absorbance wavelength [2] [nm] | extinction coefficient [2] | Structure (SMILES) | dose at which compound starts to raise serum Ca (normal mice) [µg/kg] | EC50 (CD14) [µM] | EC50 (CYP24A1 [1]) [µM] | other results
253 | 23340 | CCC(O)(CC)CCCO[C@H](C)C1CCC2/C(=C/C=C3C[C@@H](O)C4(CC4)[C@H](O)C3)CCCC21C (stereo partly drawn) [Vida-20, (4R,8R)-6-((E)-2-((1S,7αS)-1-((R)-1-(4-ethyl-4-hydroxyhexyloxy)ethyl)-7α-methyldihydro-1H-inden-4(2H, 5H, 6H, 7H, 7αH)-ylidene)ethylidene)spiro[2.5]octane-4,8-diol] | 1 | 0.0016 | 0.0067 | 
253 | 58710 | C=C1[C@H](O)CC(=C/C=C2\CCCC3(C)C2CCC3[C@@H](C)OCCCC(O)(CC)CC)C[C@H]1O (stereo partly drawn) [Vida-21, (1R,3R)-5-((E)-2-((1S,7αS)-1-((R)-1-(4-ethyl-4-hydroxyhexyloxy)ethyl)-7α-methyldihydro-1H-inden-4(2H, 5H, 6H, 7H, 7αH)-ylidene)ethylidene)-2-methylenecyclohexane-1,3-diol] | 0.1 | 0.0011 | 0.0008 | thrombomodulin protein expression (thrombomodulin): induce; also recorded: increased; EC50 (VDR): 0.0025 µM; EC50 (CYP24A1 [3]): 0.0018 µM; thrombospondin-1 protein expression (thrombospondin-1): suppress; also recorded: significantly reduced
254 | 26850 | C=C1[C@H](O)CC(=C/C=C2\CCC[C@]3(C)[C@@H]([C@H](C)COc4ccccc4)CC[C@@H]23)C[C@H]1O [Vida-36, (1R,3R)-5-((E)-2-((1R,3αS,7αR)-7α-methyl-1-((S)-1-phenoxypropan-2-yl)dihydro-1H-inden-4(2H, 5H, 6H, 7H, 7αH)-ylidene)ethylidene)-2-methylenecyclohexane-1,3-diol] |  | 34 | 249 | 
254 | 25720 | C=C1[C@H](O)CC(=C/C=C2\CCCC3(C)C2CCC3[C@@H](C)COc2cccc(C(C)(C)O)c2)C[C@H]1O (stereo partly drawn) [Vida-37, (1R,3R)-5-((E)-2-(1-((R)-1-(3-(2-hydroxypropan-2-yl)phenoxy)propan-2-yl)-7α-methyldihydro-1H-inden-4(2H, 5H, 6H, 7H, 7αH)-ylidene)ethylidene)-2-methylenecyclohexane-1,3-diol] | 10 | 0.012 | 0.0061 | 
254 | 43580 | C=C1[C@H](O)CC(=C/C=C2\CCCC3(C)C2CCC3[C@@H](C)CSc2cccc(C(C)(C)O)c2)C[C@H]1O (stereo partly drawn) [Vida-43, (1R,3R)-5-((E)-2-(1-((R)-1-(3-(2-hydroxypropan-2-yl)phenylthio)propan-2-yl)-7α-methyldihydro-1H-inden-4(2H, 5H, 6H, 7H, 7αH)-ylidene)ethylidene)-2-methylenecyclohexane-1,3-diol] |  | 0.063 | 0.0069 | 
253 | 49670 | C[C@@H](COc1cccc(C(C)(C)O)c1)[C@H]1CC[C@H]2/C(=C/C=C3C[C@@H](O)C4(CC4)[C@H](O)C3)CCC[C@]12C [Vida-57, (4R,8R)-6-((E)-2-(1-((R)-1-(3-(2-hydroxypropan-2-yl)phenoxy)propan-2-yl)-7-methyldihydro-1H-inden-4(2H,5H,6H, 7H,7αH)-ylidene)ethylidene)spiro[2.5]octane-4,8-diol] |  | 0.021 | 0.036 | 
 |  | C[C@@H](CSc1cccc(C(C)(C)O)c1)C1CCC2/C(=C/C=C3C[C@@H](O)C4(CC4)[C@H](O)C3)CCCC21C (stereo partly drawn) [Vida-58, (4R,8R)-6-((E)-2-(1-((R)-1-(3-(2-hydroxypropan-2-yl)phenylthio)propan-2-yl)-7α-methyldihydro-1H-inden-4(2H,5H,6H, 7H, 7αH)-ylidene)ethylidene)spiro[2.5]octane-4,8-diol] |  | 0.125 | 0.049 | 
 |  | C=C1/C(=C\C=C2/CCC[C@]3(C)[C@@H]([C@H](C)CCCC(C)(C)O)CC[C@@H]23)C[C@@H](O)C[C@@H]1O [calcitriol, 1,25-dihydroxyvitamin D3] |  |  |  | dose at which compound raises serum Ca (uremic rats; [4]): ~0.01 µg/kg; dose at which compound starts to suppress serum PTH (uremic rats; [4]): ~0.02 µg/kg; dose at which compound raises serum Ca (uremic rats; Slatopolsky et al., 1998): 4 ng/rat; dose at which compound starts to suppress serum PTH (uremic rats; Slatopolsky et al., 1998): 8 ng/rat

Structure (SMILES) | maximal absorbance wavelength [2] [nm] | extinction coefficient [2] | dose at which compound starts to raise serum Ca (normal mice) [µg/kg] | EC50 (CD14) [µM] | EC50 (CYP24A1 [1]) [µM] | other results
C[C@@H](OCCC(C)(C)O)C1CCC2/C(=C/C=C3C[C@@H](O)C4(CC4)[C@H](O)C3)CCCC21C (stereo partly drawn) [Vida-1, (4R,8R)-6-((E)-2-((1S,7αS)-1-((R)-1-(3-hydroxy-3-methylbutoxy)ethyl)-7α-methyldihydro-1H-inden-4(2H, 5H, 6H, 7H, 7αH)-ylidene)ethylidene)spiro[2.5]octane-4,8-diol] | 253 | 29550 | 0.01 | 0.022 | 0.069 | 
C[C@@H](OC[C@H](C)C(C)(C)O)C1CCC2/C(=C/C=C3C[C@@H](O)C4(CC4)[C@H](O)C3)CCCC21C (stereo partly drawn) [Vida-4, (4R,8R)-6-((E)-2-((3αS,7αS)-1-((R)-1-((S)-3-hydroxy-2,3-dimethylbutoxy)ethyl)-7α-methyldihydro-1H-inden-4(2H, 5H, 6H, 7H, 7αH)-ylidene)ethylidene) spiro[2.5]octane-4,8-diol] | 253 | 23610 |  | 0.031 | 0.19 | fold less potent in raising serum Ca than Vida-1 (normal mice; i.p. dosing, FIG. 4): at least 100 fold
